In US20060148732A1, “Inhibition of NF-kappaB by triterpene compositions” (priority 2000, published 2006):

Tests used:
NF-κB in Jurkat cells = assay: EMSA of TNF-induced NF-κB activation; format: cell-based, human; details: for TNF-induced NF-κB activation: Jurkat cells; for decrease in NF-κB levels: pretreatment with 2 ml (so in the source), TNF 100 pM
Procedure: Next, in order to further study the mechanism by which the active components inhibited tumor cells, the TNF-alpha induced activation of the transcription factor NF-κB was analyzed in Jurkat cells (3×10^6) which had been treated with 1-2 μg/ml of UA-BRF-004-DELEP-F035 and UA-BRF-004Pod-DELEP-F094. The study was carried out as follows: Jurkat cells were pretreated with 1-2 μg/ml of F035 or F094 for 15 h at 37° C. Cells were harvested and resuspended in 1 ml RPMI and treated with 100 pM of TNF-alpha for 30 min at 37° C. After TNF-alpha treatment, nuclear extracts were prepared according to Schreiber et al (1989). Briefly, the cells were washed with ice cold PBS and suspended in 0.4 ml of lysis buffer (10 mM HEPES, pH 7.9, 10 mM KCl, 0.1 mM EDTA, […], 0.1 mM EGTA, 1 mM dithiothreitol, 0.5 mM PMSF, 2 μg/ml of leupeptin, 2 μg/ml of aprotinin and 0.5 mg/ml benzamidine). The cells were allowed to sit on ice for 15 min and 25 μl of 10% Nonidet-40 was added to the cells. The tubes were mixed on the vortex and microcentrifuged for 30 s. The nuclear pellet was resuspended in 25 μl of ice cold nuclear extraction buffer (20 mM HEPES, pH 7.9, 0.4 M NaCl, 1 mM EDTA, 1 mM EGTA, 1 mM dithiothreitol, 1 mM PMSF, 2 μg/ml leupeptin, 2.0 μg/ml aprotinin and 0.5 mg/ml benzamidine) and tubes were incubated on ice with intermittent agitation. The nuclear extract was microcentrifuged for […] at 4° C. and supernatants were stored at −70° C.
An electrophoretic mobility shift assay was performed by incubating the nuclear extracts (7 μg of protein) with ^32P-labeled NF-κB oligonucleotides (SEQ ID NO:1; NF-κB consensus oligonucleotide; Santa Cruz Biotechnology) in presence of 0.5 μg of poly di-dc in a binding buffer (25 mM HEPES, pH 7.9, 0.5 mM EDTA, 0.5 mM dithiothreitol, 1% Nonidet P-40, 5% glycerol and 50 mM NaCl for 20 min at 37° C.) (Nabel and Baltimore, 1987; Collart et al., 1990; Hassanain et al., 1993). The DNA-protein complex formed was separated from free oligonucleotide on 5% native polyacrylamide gel using buffer containing 50 mM Tris, 200 mM glycine and 1 mM EDTA. The gel was fixed in 10% acetic acid and dried and the bands were visualized using autoradiography with intensifying screen at −70° C.
An EMSA to study the effect of crude (F035) and pure extracts D1 and G1 on TNF (Genetech Inc.) induced NF-κB was done as described earlier. Jurkat cells (1×10^6/ml) were treated with different concentrations of crude and pure extracts for 15 hr at 37° C. Next the cells were exposed to 100 pM of TNF for 15 min at 37° C. Nuclear extracts were prepared as described before. Nuclear extracts were incubated with 16 fmol ^32P-end-labeled 45-mer double-stranded NF-κB oligonucleotide from the human immunodeficiency virus long terminal repeat,
for 15 min at 37° C. in the presence of 2 μg of poly (dI-dC). The DNA protein complex was separated from free oligonucleotide on 7.5% native polyacrylamide gels. The radioactive bands from the dried gels were visualized and quantitated by a PhosphoImager (Molecular Dynamics, Sunnyvale, Calif.) using ImageQuant software.
Treatment of Cells with Monoterpene Glycosides. Jurkat cells were taken at 1×10^6/ml in complete medium and treated with 2 μg/ml of F094, monoterpene/triterpene glycoside D1, or monoterpene/triterpene glycoside G1 for 8-16 h at 37° C. At the end of the treatment, cells were washed in complete medium and counted. An equal number of viable cells was used for different experiments.
Preparation of Cytoplasmic and Nuclear Extracts. Jurkat cells (2×10^6/ml) treated with F094 or the isolated monoterpene/triterpene glycosides G1 and/or D1 were exposed to TNF (1 nM for 15 min) at 37° C. After washing the cells in cold PBS, they were suspended in 0.4 ml of cytoplasmic extraction buffer (10 mM HEPES, pH 7.9, 10 mM KCl, 0.1 mM EDTA, 0.1 mM EGTA, 1 mM DTT, 0.5 mM phenylmethylsulfonylfluoride (PMSF), 2 μg/ml of leupeptin, 2 μg/ml aprotinin, 0.5 mg/ml benzamidine) for 15 min on ice. […]

Jurkat cells = assay: Mitochondrial membrane potential (DiOC6); format: cell-based, human; details: 2 μg/ml
Procedure: Measurement of mitochondrial membrane potential (Δψm). Mitochondrial Δψm was measured as described by Zamzami, et al., 1995. After treatment with F094, avicin D, or avicin G (2 μg/ml) at 37° C, Jurkat cells were incubated with 80 nM of DiOC6 for 15 minutes at room temperature. They were then analyzed on a cytofluorometer (Facscalibar, excitation: 488 nm and emission: 552 nm).

Compound | potency in inhibiting TNF-induced NF-κB relative to mixture (NF-κB in Jurkat cells; Jurkat) | TNF-induced NF-κB activation (NF-κB in Jurkat cells) | decrease in TNF-induced NF-κB (NF-κB in Jurkat cells; Jurkat, 0.5 μg/ml for 16 h, TNF 1 nM) [%] | effect of DTT (100 μM, 2 h pretreatment) on inhibition of NF-κB activation (NF-κB in Jurkat cells; Jurkat, 2 μg/ml for 8 h) | inhibition of TNF-induced NF-κB (NF-κB in Jurkat cells; Jurkat, 2 μg/ml for 16 h, TNF 1 nM) | time of maximal inhibition of TNF-induced NF-κB (NF-κB in Jurkat cells; Jurkat, 2 μg/ml, 1-16 hours, TNF 1 nM) [h] | decrease in NF-κB levels (NF-κB in Jurkat cells; Jurkat) [%] | mitochondrial membrane potential (Δψm) (Jurkat cells; 16 hours) | mitochondrial membrane potential (Δψm) (Jurkat cells; up to 8 hours)
C=C[C@](C)(O)CC/C=C(\C)C(=O)O[C@H]1[C@H](O)[C@@H](O)[C@H](O[C@@](C)(C=C)CC/C=C(\CO)C(=O)O[C@H]2C[C@]3(C(=O)O[C@@H]4O[C@H](CO)[C@@H](O)[C@H](O)[C@H]4O[C@@H]4O[C@@H](C)[C@H](O[C@@H]5O[C@@H](CO)[C@H](O)[C@H]5O)[C@@H](O[C@@H]5O[C@H](CO)[C@@H](O)[C@H](O)[C@H]5O)[C@H]4O)[C@H](O)C[C@]4(C)C(=CC[C@@H]5[C@@]6(C)CC[C@H](O[C@@H]7O[C@H](CO[C@@H]8O[C@H](C)[C@H](O)[C@H](O)[C@H]8O[C@@H]8OC[C@@H](O)[C@H](O)[C@H]8O)[C@@H](O)[C@H](O)[C@H]7NC(C)=O)C(C)(C)[C@@H]6CC[C@]54C)[C@@H]3CC2(C)C)O[C@@H]1C [Fraction G1] | more potent than the mixture | potent inhibitors | ~50 | reversed | almost complete inhibition | 16 | 54 | significant drop | did not produce any significant changes
C=C[C@](C)(O)CC/C=C(\CO)C(=O)O[C@H]1[C@H](O)[C@@H](O)[C@H](O[C@@](C)(C=C)CC/C=C(\CO)C(=O)O[C@H]2C[C@]3(C(=O)O[C@@H]4O[C@H](CO)[C@@H](O)[C@H](O)[C@H]4O[C@@H]4O[C@@H](C)[C@H](O[C@@H]5O[C@@H](CO)[C@H](O)[C@H]5O)[C@@H](O[C@@H]5O[C@H](CO)[C@@H](O)[C@H](O)[C@H]5O)[C@H]4O)[C@H](O)C[C@]4(C)C(=CC[C@@H]5[C@@]6(C)CC[C@H](O[C@@H]7O[C@H](CO[C@@H]8O[C@H](C)[C@H](O)[C@H](O)[C@H]8O[C@@H]8OC[C@@H](O)[C@H](O)[C@H]8O)[C@@H](O)[C@H](O)[C@H]7NC(C)=O)C(C)(C)[C@@H]6CC[C@]54C)[C@@H]3CC2(C)C)O[C@@H]1C [Fraction D1] | – | potent inhibitors | – | – | – | – | 87 | significant drop | did not produce any significant changes
